Measurements from the supplement of paper PMC10307832.

Legend:
Experiment in all cases: relative viability (nuclei count vs DMSO), 5 days (fraction); higher = more cells survive
HCC-366 = test system: HCC-366
In short: (§1)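 Lung cancer cell lines were pin-tool dosed in 1536-well plates on the day after seeding, with either a lone drug or a fixed anchor-drug dose plus five library-drug doses (not always all listed) in √10 steps. Nuclei were counted on 4× images after 5 days. Relative viability is the ratio of treated-well to vehicle-well nuclei counts, with each value a median of duplicate plates.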

HCC-44 = test system: HCC-44
In short: as §1

LOU-NH91 = test system: LOU-NH91
In short: as §1

LXF-289 = test system: LXF-289
In short: as §1

NCI-H1437 = test system: NCI-H1437
In short: as §1

NCI-H1648 = test system: NCI-H1648
In short: as §1

NCI-H2085 = test system: NCI-H2085
In short: as §1

NCI-H3122 = test system: NCI-H3122
In short: as §1

Row | SMILES | relative viability (HCC-366; first compound 0.04 µM) | relative viability (HCC-366; first compound 0.4 µM) | relative viability (HCC-366; first compound 1.265 µM) | relative viability (HCC-366; first compound 4 µM) | relative viability (HCC-44; first compound 0.04 µM) | relative viability (HCC-44; first compound 0.1265 µM) | relative viability (HCC-44; first compound 0.4 µM) | relative viability (HCC-44; first compound 1.265 µM) | relative viability (HCC-44; first compound 4 µM) | relative viability (LOU-NH91; first compound 0.04 µM) | relative viability (LOU-NH91; first compound 0.1265 µM) | relative viability (LOU-NH91; first compound 0.4 µM) | relative viability (LOU-NH91; first compound 1.265 µM) | relative viability (LOU-NH91; first compound 4 µM) | relative viability (LXF-289; first compound 0.04 µM) | relative viability (LXF-289; first compound 0.1265 µM) | relative viability (LXF-289; first compound 0.4 µM) | relative viability (LXF-289; first compound 1.265 µM) | relative viability (LXF-289; first compound 4 µM) | relative viability (NCI-H1437; first compound 0.04 µM) | relative viability (NCI-H1437; first compound 0.1265 µM) | relative viability (NCI-H1437; first compound 0.4 µM) | relative viability (NCI-H1437; first compound 1.265 µM) | relative viability (NCI-H1437; first compound 4 µM) | relative viability (NCI-H1648; first compound 0.04 µM) | relative viability (NCI-H1648; first compound 0.1265 µM) | relative viability (NCI-H1648; first compound 0.4 µM) | relative viability (NCI-H1648; first compound 1.265 µM) | relative viability (NCI-H1648; first compound 4 µM) | relative viability (NCI-H2085; first compound 0.04 µM) | relative viability (NCI-H2085; first compound 0.1265 µM) | relative viability (NCI-H2085; first compound 0.4 µM) | relative viability (NCI-H2085; first compound 1.265 µM) | relative viability (NCI-H2085; first compound 4 µM) | relative viability (NCI-H3122; first compound 0.04 µM) | relative viability (NCI-H3122; first compound 0.1265 µM) | relative viability (NCI-H3122; first compound 0.4 µM) | relative viability (NCI-H3122; first compound 1.265 µM) | relative viability (NCI-H3122; first compound 4 µM)
1 | Cc1sc2c(c1C)C(c1ccc(Cl)cc1)=N[C@@H](CC(=O)OC(C)(C)C)c1nnc(C)n1-2 [JQ1] + CC(=O)c1c(C)c2cnc(Nc3ccc(N4CCNCC4)cn3)nc2n(C2CCCC2)c1=O [Palbociclib] (partner 0.5 µM) | 0.415 | 0.202 | 0.137 | 0.0766 | 0.96 | 0.942 | 1.11 | 0.978 | 0.728 | 0.493 | 0.474 | 0.491 | 0.394 | 0.446 | 0.562 | 0.591 | 0.576 | 0.426 | 0.353 | 0.266 | 0.251 | 0.218 | 0.296 | 0.217 | 0.259 | 0.303 | 0.332 | 0.358 | 0.309 | 0.458 | 0.427 | 0.508 | 0.418 | 0.462 | 0.22 | 0.203 | 0.191 | 0.185 | 0.139
2 | Cc1sc2c(c1C)C(c1ccc(Cl)cc1)=N[C@@H](CC(=O)OC(C)(C)C)c1nnc(C)n1-2 [JQ1] + Nc1nc2[nH]cc(CCc3ccc(C(=O)N[C@@H](CCC(=O)O)C(=O)O)cc3)c2c(=O)[nH]1 [Pemetrexed] (partner 0.2 µM) | 0.16 | 0.136 | 0.13 | 0.104 | 0.59 | 0.617 | 0.692 | 0.58 | 0.444 | 0.365 | 0.387 | 0.354 | 0.334 | 0.362 | 0.915 | 0.808 | 0.867 | 0.59 | 0.541 | 0.303 | 0.309 | 0.244 | 0.201 | 0.208 | 0.726 | 0.817 | 0.683 | 0.54 | 0.258 | 0.738 | 0.721 | 0.668 | 0.403 | 0.374 | 0.193 | 0.16 | 0.186 | 0.118 | 0.12
